The text below walks through data of PubChem BioAssay (NCI).

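Compound exposure: 48 hours, 5 concentrations, 96-well plates. At the GI50, growth is halved. TGI is the concentration that stops growth completely.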

Some test systems named below: HCT-116 colon; HOP-62 NSCLC; IGROV1 ovarian; KM12 colon; OVCAR-8 ovarian; SK-MEL-28 melanoma; SN12C renal; SNB-19 CNS; TK-10 renal; UO-31 renal.
Holding throughout (assay): NCI tumour cell line growth inhibition, 48 h

`O=C(O)c1c[nH]c2c(ccc3[nH]cc(C(=O)O)c(=O)c32)c1=O`: the TGI with HCT-116 colon, with HOP-62 NSCLC, in the assay with IGROV1 ovarian, with KM12 colon, with OVCAR-8 ovarian and in the assay on SK-MEL-28 melanoma was more than 100 µM each time. Further, the TGI in the assay on SN12C renal, in the assay with SNB-19 CNS, in the assay on TK-10 renal and in the assay with UO-31 renal was more than 100 µM each time.

`COc1cc(CC(=O)c2cc3c(cc2-c2ccccc2)OCO3)cc(OC)c1OC`: the TGI in the assay with HCT-116 colon, in the assay on HOP-62 NSCLC, in the assay with IGROV1 ovarian, with KM12 colon, in the assay with OVCAR-8 ovarian and in the assay with SK-MEL-28 melanoma was more than 100 µM throughout. Moreover, the TGI in the assay on SN12C renal, in the assay on SNB-19 CNS, in the assay with TK-10 renal and with UO-31 renal was more than 100 µM throughout.

For the compound `N/C(=N\C(N)=N\c1nc2ccccc2s1)c1ccnc(Br)c1`, the GI50 is 3.28 µM in the assay on HCT-116 colon; 3.65 µM in the assay with HOP-62 NSCLC; 3.63 µM in the assay with IGROV1 ovarian; 5.19 µM in the assay on KM12 colon; 10.3 µM with OVCAR-8 ovarian; 8.7 µM in the assay on SK-MEL-28 melanoma. Further, the GI50 in the assay with SN12C renal was 5.57 µM; with SNB-19 CNS, 7.1 µM; in the assay on TK-10 renal it was 52 µM; in the assay with UO-31 renal it was 3.56 µM. Also, the TGI in the assay on HCT-116 colon was more than 100 µM; in the assay with HOP-62 NSCLC, 57.2 µM; with IGROV1 ovarian, more than 100 µM; in the assay with KM12 colon, more than 100 µM; with OVCAR-8 ovarian it was more than 100 µM; in the assay with SK-MEL-28 melanoma, more than 100 µM. In addition, the TGI was more than 100 µM in the assay with SN12C renal, more than 100 µM in the assay on SNB-19 CNS, more than 100 µM with TK-10 renal and 84 µM in the assay with UO-31 renal.

As for `COc1cccc(/C=C2\CCc3ccccc3C2=O)c1`, the GI50 was 9.26 µM with HCT-116 colon; 14.6 µM in the assay on HOP-62 NSCLC; 12.5 µM with IGROV1 ovarian; 6.31 µM in the assay with KM12 colon; 12.4 µM in the assay with OVCAR-8 ovarian; 15.5 µM with SK-MEL-28 melanoma. Moreover, the GI50 with SN12C renal is 15.8 µM; in the assay with SNB-19 CNS it was 12.4 µM; with TK-10 renal it was 15.1 µM; in the assay with UO-31 renal, 10.9 µM. In addition, the TGI was found to be 25.3 µM in the assay with HCT-116 colon; 29.2 µM in the assay on HOP-62 NSCLC; 35 µM in the assay with IGROV1 ovarian; 18.8 µM with KM12 colon; 60.7 µM in the assay with OVCAR-8 ovarian; 31 µM in the assay on SK-MEL-28 melanoma. Besides, the TGI came out at 40.2 µM in the assay with SN12C renal, 26.7 µM in the assay with SNB-19 CNS, 34.6 µM in the assay on TK-10 renal and 24.3 µM with UO-31 renal.

On to `NCCCCCCCCCn1c2c(c3ccccc3c1=O)C(=O)c1ccccc1-2`, for which the GI50 in the assay on HCT-116 colon was 6.5 µM; with HOP-62 NSCLC it was 6.84 µM; in the assay on IGROV1 ovarian, 10.2 µM; with KM12 colon, 9.53 µM; in the assay with OVCAR-8 ovarian it was 12.5 µM; in the assay on SK-MEL-28 melanoma it was 9.98 µM. Moreover, the GI50 in the assay with SN12C renal was 8.48 µM; with SNB-19 CNS, 9.27 µM; in the assay on TK-10 renal, 8.8 µM; with UO-31 renal, 7.68 µM. Besides, the TGI in the assay with HCT-116 colon was 17.2 µM; in the assay with HOP-62 NSCLC it was 16.2 µM; in the assay on IGROV1 ovarian it was more than 50 µM; with KM12 colon, 22.2 µM; with OVCAR-8 ovarian, more than 50 µM; in the assay on SK-MEL-28 melanoma, 23 µM. Besides, the TGI with SN12C renal amounted to 18.4 µM; in the assay on SNB-19 CNS it was 22.6 µM; with TK-10 renal it was 17.4 µM; in the assay with UO-31 renal it was 18.6 µM.

As for `Cn1c(=O)c(-c2c(Cl)cccc2Cl)cc2cnc(Nc3ccc(I)cc3)nc21`, the TGI was 0.305 µM in the assay on HCT-116 colon; 0.668 µM with HOP-62 NSCLC; 3.77 µM with IGROV1 ovarian; 1.5 µM with KM12 colon; more than 100 µM with OVCAR-8 ovarian; more than 73.6 µM in the assay with SK-MEL-28 melanoma. Moreover, the TGI was 2.37 µM in the assay on SN12C renal, more than 100 µM with SNB-19 CNS, 2.12 µM with TK-10 renal and 8.28 µM with UO-31 renal. Moreover, the GI50 with IGROV1 ovarian is 0.506 µM; in the assay on KM12 colon, 0.0452 µM; in the assay on OVCAR-8 ovarian, 1.52 µM; in the assay on SK-MEL-28 melanoma, 0.479 µM; with SN12C renal, 0.505 µM; in the assay with SNB-19 CNS it was 0.625 µM. Besides, the GI50 with TK-10 renal is 0.459 µM; in the assay on UO-31 renal, 2.44 µM.

For the compound `O=C1c2ccccc2-c2ccccc2C1(Cl)Cl`, the GI50 with HCT-116 colon was 0.3 µM; with HOP-62 NSCLC, 1.13 µM; in the assay on IGROV1 ovarian, 1.13 µM; in the assay on KM12 colon it was 1.73 µM; in the assay with OVCAR-8 ovarian it was 0.334 µM; in the assay on SK-MEL-28 melanoma, 1.8 µM. The GI50 in the assay on SN12C renal is 1.45 µM; in the assay with SNB-19 CNS, 1.84 µM; with TK-10 renal it was 1.25 µM; with UO-31 renal, 1.12 µM. Further, the TGI in the assay with HCT-116 colon is 1.09 µM; with HOP-62 NSCLC, 2.64 µM; with IGROV1 ovarian, 2.54 µM; with KM12 colon, 3.17 µM; in the assay with OVCAR-8 ovarian, 1.26 µM; in the assay with SK-MEL-28 melanoma it was 3.24 µM. For the same compound, the TGI with SN12C renal is 2.98 µM; in the assay on SNB-19 CNS, 4.66 µM; with TK-10 renal it was 2.68 µM; in the assay on UO-31 renal it was 2.41 µM.

As for `C=CNC(=S)n1nc(-c2ccccc2NC(=O)C(F)(F)F)c(=O)n(C(=S)NC=C)c1=S`, the TGI is more than 100 µM in the assay with HCT-116 colon; 86 µM with HOP-62 NSCLC; more than 100 µM in the assay with IGROV1 ovarian; more than 100 µM with KM12 colon; more than 100 µM in the assay with OVCAR-8 ovarian; more than 100 µM in the assay with SK-MEL-28 melanoma. The TGI with SN12C renal was more than 100 µM; with SNB-19 CNS it was more than 100 µM; with TK-10 renal it was more than 100 µM; in the assay on UO-31 renal, 73.6 µM.
